Test results taken from ChEMBL document CHEMBL1149956, “Synthesis and biological evaluation of new 5-HPETE analogs” (Bioorg Med Chem Lett, 1994).
Activity calls are given as the source filed them. The calls are words filed in the database; no cut-off is given here.

Experiments:
[1] = target: T1, Polyunsaturated fatty acid 5-lipoxygenase (Homo sapiens) (UniProt P09917); test: Tested for the inhibition of 5-lipoxygenase from human polymorphonuclear leukocytes(PMN) at 10 uM concentration of the compound; IA= Inactive
T1 sequence (whole entry): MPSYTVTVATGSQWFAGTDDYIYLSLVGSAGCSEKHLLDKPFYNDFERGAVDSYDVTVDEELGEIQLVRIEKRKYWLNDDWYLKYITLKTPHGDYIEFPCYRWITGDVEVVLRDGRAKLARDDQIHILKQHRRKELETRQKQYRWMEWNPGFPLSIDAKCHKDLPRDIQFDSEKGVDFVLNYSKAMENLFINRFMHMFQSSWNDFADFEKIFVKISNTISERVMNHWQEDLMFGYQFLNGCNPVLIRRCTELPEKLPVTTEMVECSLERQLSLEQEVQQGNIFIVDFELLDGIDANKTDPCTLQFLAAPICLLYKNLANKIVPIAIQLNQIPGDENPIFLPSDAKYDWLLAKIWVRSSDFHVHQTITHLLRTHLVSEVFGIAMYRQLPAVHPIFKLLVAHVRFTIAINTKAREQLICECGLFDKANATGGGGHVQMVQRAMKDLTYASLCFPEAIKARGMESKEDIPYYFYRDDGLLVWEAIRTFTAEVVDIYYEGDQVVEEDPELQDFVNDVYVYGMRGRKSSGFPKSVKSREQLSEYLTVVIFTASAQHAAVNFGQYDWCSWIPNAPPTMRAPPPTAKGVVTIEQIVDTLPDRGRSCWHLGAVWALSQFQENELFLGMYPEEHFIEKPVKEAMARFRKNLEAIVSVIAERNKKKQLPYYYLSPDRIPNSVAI

[2] = target: T1, Polyunsaturated fatty acid 5-lipoxygenase (Homo sapiens); test: Tested for the inhibition of 5-lipoxygenase from human polymorphonuclear leukocytes(PMN) at 10 uM concentration of the compound; value ranges from 70-90

| Compound | inhibition [1] | inhibition [2] |
| --- | --- | --- |
| CCCCCCCCCCC/C=C\C=C\c1cc(C/C=N/O)no1 | inactive |  |
| CCCCC/C=C\C/C=C\C/C=C\C=C\C1CC(CC(=O)OC)=NO1 (stereo not given) | inactive |  |
| CCCCCCCCCCC/C=C\C=C\C1CC(CC(=O)OC)=NO1 (stereo not given) |  | 70% |
| CCCCCCCCCCC/C=C\C=C\c1cc(CC(=O)OC)no1 |  | 70% |
| CCCCC/C=C\C/C=C\C/C=C\C=C\c1cc(CC(=O)OC)no1 |  | 70% |
